Source: patent US20110269759A1, “PYRIMIDINE COMPOUNDS AS DELTA OPIOID RECEPTOR MODULATORS” (priority 2009, published 2011)
Like-named read-outs stand apart in the source and are kept apart here.

Columns and labels:
[1] = biological target: T1, Delta Opioid Receptor (Rattus norvegicus, UniProt P33533); assay: Rat brain delta opioid receptor binding assay ([3H]DPDPE or [3H]naltrindole)
T1 construct: the forebrains were homogenized in Tris buffer in a Teflon®-glass homogenizer; from tissue; host or cells: forebrain of male Wistar rats, particulate membrane preparation

[2] = biological target: T2, Mu Opioid Receptor (Rattus norvegicus, UniProt P33535); assay: Rat brain mu opioid receptor binding assay ([3H]DAMGO)
T2 construct: the forebrains were homogenized in Tris buffer in a Teflon®-glass homogenizer; from tissue; host or cells: forebrain of male Wistar rats, particulate membrane preparation

[3] = biological target: T3, Delta Opioid Receptor (Mus musculus, UniProt P32300); assay: NG108-15, 24-well delta opioid receptor binding assay ([3H]naltrindole)
T3 construct: NG108-15 cell membranes were purchased from Applied Cell Sciences (Rockville, Md.); host or cells: NG108-15 cell membranes (purchased)

[4] = biological target: δ-opioid receptor (Mus musculus, UniProt P32300); assay: [35S]GTPγS δ-opioid receptor functional assay (EC50, relative efficacy, % inhibition); type: biochemical; design: NG108-15 cell membranes were purchased from Applied Cell Sciences (Rockville, Md.); settings: for inhibition at 10 µM: read-out: GTPγS δ-opioid receptor % Inh @10 μM
[5] = rat forebrain membranes, ~4 nM [3H]DPDPE, read-out: δ-binding (DPDPE ligand) Ki
[6] = rat forebrain membranes, ~0.8 nM [3H]DAMGO, read-out: μ-binding Ki
[7] = rat forebrain membranes, 0.25 nM [3H]naltrindole, read-out: δ-binding (Naltrindole ligand) Ki

T2 sequence (P33535 whole entry): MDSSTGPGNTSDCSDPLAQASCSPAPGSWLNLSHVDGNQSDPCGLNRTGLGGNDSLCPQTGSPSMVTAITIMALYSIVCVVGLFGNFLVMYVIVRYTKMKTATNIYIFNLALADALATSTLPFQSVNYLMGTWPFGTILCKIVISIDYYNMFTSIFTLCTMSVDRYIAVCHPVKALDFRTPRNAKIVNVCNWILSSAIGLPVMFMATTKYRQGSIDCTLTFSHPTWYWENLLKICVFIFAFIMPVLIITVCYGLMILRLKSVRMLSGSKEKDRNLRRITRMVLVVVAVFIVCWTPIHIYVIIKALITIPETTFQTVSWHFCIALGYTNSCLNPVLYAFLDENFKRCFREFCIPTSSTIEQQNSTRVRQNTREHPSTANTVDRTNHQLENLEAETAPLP
Chain of δ-opioid receptor (P32300 whole entry): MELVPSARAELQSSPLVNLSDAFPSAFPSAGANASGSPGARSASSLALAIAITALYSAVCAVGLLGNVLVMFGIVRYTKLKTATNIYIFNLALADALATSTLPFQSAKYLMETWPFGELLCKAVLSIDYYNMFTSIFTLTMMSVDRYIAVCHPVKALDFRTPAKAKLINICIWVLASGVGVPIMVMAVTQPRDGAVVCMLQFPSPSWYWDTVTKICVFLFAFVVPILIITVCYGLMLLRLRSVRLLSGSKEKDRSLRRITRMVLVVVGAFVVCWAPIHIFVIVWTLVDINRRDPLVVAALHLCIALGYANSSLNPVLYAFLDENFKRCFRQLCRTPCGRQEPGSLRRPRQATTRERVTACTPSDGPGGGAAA
T1 sequence (P33533 whole entry): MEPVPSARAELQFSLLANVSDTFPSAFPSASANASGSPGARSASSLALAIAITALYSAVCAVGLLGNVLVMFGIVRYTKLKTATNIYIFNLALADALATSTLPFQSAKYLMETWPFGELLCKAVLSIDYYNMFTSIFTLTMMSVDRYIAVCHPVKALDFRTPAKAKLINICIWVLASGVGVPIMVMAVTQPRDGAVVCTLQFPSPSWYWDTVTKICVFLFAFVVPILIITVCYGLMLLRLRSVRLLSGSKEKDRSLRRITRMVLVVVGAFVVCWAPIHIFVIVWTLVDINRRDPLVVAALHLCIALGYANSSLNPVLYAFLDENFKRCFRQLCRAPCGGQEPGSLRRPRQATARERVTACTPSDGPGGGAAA
T3 sequence (P32300 whole entry): as the sequence (P32300 whole entry) above

## COc1ccc(Oc2cc(-c3noc(=O)[nH]3)ccc2NC[C@@H]2CCCN2)cc1 [Cpd 48, (S)-3-{3-(4-Methoxy-phenoxy)-4-[(pyrrolidin-2-ylmethyl)-amino]-phenyl}-4H-[1,2,4]oxadiazol-5-one]
[1]; [5]
  Ki: 492 nM
[2]; [6]
  Ki: 9700 nM

## COc1ccc(Oc2cc(-c3ccsc3)ccc2NC[C@@H]2CCCN2)cc1 [Cpd 41]
[1]; [7]
  Ki: 290 nM

## COc1ccc(Oc2ccc(NC3CCCNC3)c(Oc3ccc(OC)cc3)c2)cc1 (racemic) [Cpd 54]
[1]; [5]
  Ki: 492 nM
[2]
  Ki: 9700 nM

## CCN(C[C@@H]1CCCN1)c1ccc(-c2cccnc2)cc1Oc1ccc(OC)cc1 [Cpd 49, (S)-Ethyl-[2-(4-methoxy-phenoxy)-4-pyridin-3-yl-phenyl]-pyrrolidin-2-ylmethyl-amine]
[3]; NG108-15 cell membranes, ~0.2 nM [3H]naltrindole, read-out: δ-binding NG108 cell membrane Ki
  Ki: 29 nM

## COc1ccc(Oc2ccc(NC3CN4CCC3CC4)c(Oc3ccc(OC)cc3)c2)cc1 (centres unmarked) [Cpd 60]
[1]; [5]
  Ki: 158 nM
[2]; [6]
  Ki: > 10000 nM

## COc1ccc(Oc2cc(CCc3ccccc3)ccc2NC[C@@H]2CCCN2)cc1 [Cpd 5]
[1]; [7]
  Ki: 239 nM

## CCN(C[C@@H]1CCCN1)c1ccc(-c2cncc(C#N)c2)cc1Oc1ccc(OC)cc1 [Cpd 52]
[3]
  Ki: 9.33 nM

## CCN(CC)C(=O)c1cccc(Oc2cc(-c3ccccc3)ccc2NC[C@@H]2CCCN2)c1 [Cpd 34]
[1]; [7]
  Ki: 310 nM

## COc1ccc(Oc2ccc(NC3CCCC(N)C3)c(Oc3ccc(OC)cc3)c2)cc1 (centres unmarked) [Cpd 62]
[1]
  Ki: 40.9 nM
[4]
  EC50: 381 nM
  inhibition at 10 µM: 1.73%
[2]
  Ki: 1640 nM

## COc1ccc(CCc2ccc(NC[C@@H]3CCCN3)c(Oc3ccc(OC)cc3)c2)cc1 [Cpd 3, (S)-{2-(4-Methoxy-phenoxy)-4-[2-(4-methoxy-phenyl)-ethyl]-phenyl}-pyrrolidin-2-ylmethyl-amine]
[1]; [7]
  Ki: 120 nM
[2]; [6]
  Ki: > 10000 nM

## COc1ccc(Oc2cc(CCc3cccc(OC)c3)ccc2NC[C@@H]2CCCN2)cc1 [Cpd 4]
[1]; [7]
  Ki: 210 nM

## CCN(CC)C(=O)c1ccc(NC[C@@H]2CCCN2)c(Oc2ccccc2OC)c1 [Cpd 11]
[1]; [5]
  Ki: 105 nM
[4]
  EC50: 319 nM

## COc1ccc(Oc2cc(-c3cccc4ccccc34)ccc2NC[C@@H]2CCCN2)cc1 [Cpd 37]
[1]; [7]
  Ki: 301 nM

## CNCCNc1ccc(-c2ccccc2)cc1Oc1ccc(OC)cc1 [Cpd 19]
[1]; [7]
  Ki: 192 nM
[2]; [6]
  Ki: > 10000 nM

## COc1ccc(Oc2ccc(NC[C@@H]3CCCN3)c(Oc3ccc(OC)cc3)c2)cc1 [Cpd 53, (S)-[2,4-Bis-(4-methoxy-phenoxy)-phenyl]-pyrrolidin-2-ylmethyl-amine]
[1]; [5]
  Ki: 105 nM
[4]
  EC50: 319 nM
  inhibition at 10 µM: 28.2%
[2]; [6]
  Ki: > 10000 nM

## FC(F)(F)Oc1ccc(Oc2cc(-c3ccccc3)ccc2NC[C@@H]2CCCN2)cc1 [Cpd 17]
[1]; [7]
  Ki: 1470 nM

## COc1ccc(Oc2cc(-c3ccccc3)ccc2N2CCNCC2)cc1 [Cpd 46, 1-[3-(4-Methoxy-phenoxy)biphenyl-4-yl]piperazine]
[1]
  Ki: 79.7 nM
[2]; read-out: μ-binding Ki
  Ki: > 10000 nM

## Oc1ccc(Oc2cc(-c3cccnc3)ccc2NC[C@@H]2CCCN2)cc1 [Cpd 45, (S)-4-{5-Pyridin-3-yl-2-[(pyrrolidin-2-ylmethyl)-amino]-phenoxy}-phenol]
[1]
  Ki: 5.42 nM
[4]
  EC50: 40.8 nM
  GTPγS δ-opioid receptor Rel Efficacy: 0.627
  inhibition at 10 µM: 35.6%
[2]
  Ki: 4460 nM

## N#Cc1cccc(Oc2cc(-c3ccccc3)ccc2NC[C@@H]2CCCN2)c1 [Cpd 13]
[1]; [7]
  Ki: 402 nM

## COc1ccc(Oc2ccc(NC3CCNCC3)c(Oc3ccc(OC)cc3)c2)cc1 [Cpd 56]
[1]; [5]
  Ki: 1730 nM
[2]; [6]
  Ki: > 10000 nM

## COc1ccc(Oc2cc(CCc3cccc(F)c3)ccc2NC[C@@H]2CCCN2)cc1 [Cpd 7]
[1]; [7]
  Ki: 229 nM

## COC(=O)c1cccc(Oc2cc(-c3ccccc3)ccc2NC[C@@H]2CCCN2)c1 [Cpd 21]
[1]; [7]
  Ki: 887 nM

## Clc1cccc(Cl)c1Oc1cc(-c2ccccc2)ccc1NC[C@@H]1CCCN1 [Cpd 18]
[1]; [7]
  Ki: 108 nM
[4]
  EC50: 1040 nM
  GTPγS δ-opioid receptor Rel Efficacy: 0.763
  inhibition at 10 µM: 23.4%

## COc1ccc(Oc2ccc(NCC3CCCNC3)c(Oc3ccc(OC)cc3)c2)cc1 (racemic) [Cpd 61]
[1]; [5]
  Ki: 111 nM
[4]
  EC50: 4070 nM
  inhibition at 10 µM: 16.1%
[2]; [6]
  Ki: > 10000 nM

## COC(=O)c1ccc(Oc2cc(-c3ccccc3)ccc2NC[C@@H]2CCCN2)cc1 [Cpd 20]
[1]; [7]
  Ki: 779 nM

## Clc1ccc(Oc2cc(-c3ccccc3)ccc2NC[C@@H]2CCCN2)c(Cl)c1 [Cpd 22]
[1]; [7]
  Ki: 698 nM
